Experimental data published in patent US20240180923A1, “METHODS OF TREATING DISORDERS WITH ULK INHIBITORS” (Deciphera Pharmaceuticals, LLC, priority 2022, published 2024).

System: autophagic flux in NSCLC cell lines
Test: Autophagy flux assay in NSCLC cell lines, DCC-3116 with trametinib
Assay type: cell-based
Settings: multiple NSCLC cell lines, FIG. 6B
Description: Constructs were designed through VectorBuilder. For each cell line, 10 ml of appropriate media was mixed with Polybrene (VectorBuilder, Cat #PL0001, stock concentration 5 mg/ml, 200 ul) to a final concentration of 15 ng/μL. These solutions were added to the 6-well plate with various cell lines plated the previous day. Cells were checked after 22 hours of incubation. Media was then removed from the cells and incubated with fresh media containing puromycin (Sigma Cat #P9620). Cells that survived puromycin selection and successfully expressed mCherry-GFP-LC3 were used for flux assays.
Cells are seeded in FluoroBrite DMEM (Gibco Ref #A18967-01) supplemented with 10% FBS (Gibco ref #A384000-001) and Pen/Strep/Glutamine (Gibco Ref #10378-016) at appropriate seeding numbers defined empirically. The next day, cells are treated with DCC-3116 and/or trametinib or DMSO as a control. Cells are placed in the IncuCyte for live cell imaging over the indicated time length at 37° C. with 20% 02 and 5% CO2. Cells were imaged at 4× objective lens every four hours. The data was analyzed using the Incucyte software by measuring Total Integrated Intensity (GCUX μM2/images) of red (mCherry) divided by (GCUX μM2/images) green (GFP) to measure the ratio of red/green signal change over time.

Structure (SMILES): CCc1cc(N2CCN(C)CC2)ccc1Nc1ncc(C(F)(F)F)c(NCCCN2CCOCCC2=O)n1 [DCC-3116]
- effect on trametinib-induced autophagic flux: inhibited
